# Results published in US20070259948A1, “Compounds with antifungal properties and process thereof” (priority 2006, published 2007).
# Columns and labels:
# Assay in all cases: Antifungal susceptibility testing (minimum inhibitory concentration), soyabean casein digest broth
# Assay type in all cases: cell-based
# C. albicans = details: Candida albicans; end points after 48 hours, visually / spectrophotometer; NI till x = no inhibition up to x; read-out: Activity against organisms In μg/ml, C. albicans (minimum inhibitory concentration)
# Protocol: (§1) In vitro evaluation of antifungal activity can be performed by determining the minimum inhibitory concentration. Anti-fungal susceptibility testing of these anti-fungal compounds was done by conventional method using soyabean casein digest broth. Known anti-fungal agents like Fluconazole and amphotericin-B were used as positive control. End points were determined after 48 hours visually and by using Spectrophotometer wherever necessary. Different dilutions were tried and the set of experiments.
# A. niger = details: Aspergillus niger; end points after 48 hours, visually / spectrophotometer; NI till x = no inhibition up to x; read-out: Activity against organisms In μg/ml, A. niger (minimum inhibitory concentration)
# Protocol: as §1
# F. proliferatum = details: Fusarium proliferatum; end points after 48 hours, visually / spectrophotometer; NI till x = no inhibition up to x; read-out: Activity against organisms In μg/ml, F. proliferatum (minimum inhibitory concentration)
# Protocol: as §1
Structure (SMILES),MIC (C. albicans),MIC (A. niger),MIC (F. proliferatum)
"O=C(CCCCl)OCC1C=C(c2cccc(F)c2)C(=O)O1 (stereo not drawn) [1HD, 4-(3-fluorophenyl)-5-oxo-2,5-dihydrofuran-2-ylmethyl 4-chlorobutyrate]",1 to 2 µg/mL,1 to 2 µg/mL,1 to 2 µg/mL
"COc1ccc(C2=CC(COC(=O)CCCCl)OC2=O)cc1Br (stereo not drawn) [1HE, 4-(3-bromo-4-methoxyphenyl)-5-oxo-2,5-dihydrofuran-2-ylmethyl 4-chlorobutyrate]",> 4 µg/mL,> 4 µg/mL,> 4 µg/mL
"COc1ccc(C2=CC(COC(=O)CCCCCl)OC2=O)cc1Br (stereo not drawn) [1IE, 4-(3-bromo-4-methoxyphenyl)-5-oxo-2,5-dihydrofuran-2-ylmethyl 5-chlorovalerate]",> 8 µg/mL,> 8 µg/mL,> 8 µg/mL
"O=C1OC(COC(=O)c2cccc(I)c2)C=C1c1cccc(Cl)c1 (stereo not drawn) [1JB, 4-(3-chlorophenyl)-5-oxo-2,5-dihydrofuran-2-ylmethyl 3-iodobenzoate]",> 2 µg/mL,> 2 µg/mL,> 2 µg/mL
"O=C1OC(COC(=O)c2cccc(I)c2)C=C1c1cccc(Br)c1 (stereo not drawn) [1JC, 4-(3-bromophenyl)-5-oxo-2,5-dihydrofuran-2-ylmethyl 3-iodobenzoate]",2 to 4 µg/mL,> 4 µg/mL,> 4 µg/mL
"COc1ccc(C2=CC(COC(=O)c3cccc(I)c3)OC2=O)cc1Br (stereo not drawn) [1JE, 4-(3-bromo-4-methoxyphenyl)-5-oxo-2,5-dihydrofuran-2-ylmethyl 3-iodobenzoate]",> 2 µg/mL,> 2 µg/mL,> 2 µg/mL
"O=C1OC(COC(=O)c2ccc[nH]2)C=C1c1cccc(Cl)c1 (stereo not drawn) [1KB, 4-(3-chlorophenyl)-5-oxo-2,5-dihydrofuran-2-ylmethyl pyrrole-2-carboxylate]",0.5 to 1 µg/mL,1 to 2 µg/mL,1 to 2 µg/mL
"O=C1OC(COC(=O)c2ccc[nH]2)C=C1c1cccc(Br)c1 (stereo not drawn) [1KC, 4-(3-bromophenyl)-5-oxo-2,5-dihydrofuran-2-ylmethyl pyrrole-2-carboxylate]",1 to 2 µg/mL,2 to 4 µg/mL,1 to 2 µg/mL
"COc1ccc(C2=CC(COC(=O)c3cc(Br)c(Br)s3)OC2=O)cc1Br (stereo not drawn) [FE, 4-(3-bromo-4-methoxyphenyl)-5-oxo-2,5-dihydrofuran-2-ylmethyl 4,5-dibromothiophene-2-carboxylate]",4 to 8 µg/mL,> 4 µg/mL,> 4 µg/mL
